Like-named read-outs stand apart in the source and are kept apart here. Residues, ends and D or L forms follow the SMILES beside them.
Key:
[1] = in vitro; details: human
Excerpt: (§1) The drug-selected ABCG2-overexpressing non-small cell lung cancer (NSCLC) cell line NCI-H460/MX20 and its parental NCI-H460 cell line, and the ABCB1 gene-transfected HEK293 cells, HEK293/ABCB1, and its parental empty vector transfected HEK293 cells, HEK293/pcDNA3.1 were provided by Drs. Susan E. Bates and Robert Robey (NIH, MD). The drug-resistant ABCB1 overexpressing human epidermal carcinoma cell line KB-C2 and its parental KB-3-1 cell line were generously provided by Dr. Shin-Ichi Akiyama (Kagoshima University, Kagoshima, Japan). All cell lines were cultured in complete Dulbecco’s modified Eagle’s medium(DMEM) (Hyclone, GE Healthcare Life Sciences, Pittsburgh, PA, USA) with the addition of 10% fetal bovine serum (FBS) and 1% penicillin/streptomycin (Hyclone, GE Healthcare Life Sciences, Pittsburgh, PA, USA). The transfected cell lines were selected in complete medium with addition of 2 mg/mL of Geneticin (Enzo Life Sciences, Farmingdale, NY, USA) for selection, KB-C2 cells were continually treated with complete medium and […], and NCI-H460/MX20 cells were cultured with 20 ng/mL mitoxantrone added to the complete medium. All drug-treated cell lines were recovered for more than 2 weeks without treatment before their use. The culture condition was in a humidified incubator at 37 °C with 5% CO2.
(§2) The final absorbance of each well was measured by Microplate Spectrophotometer (Fisher Sci., Fair Lawn, NJ, USA) at 570 nm.

[2] = system: parental cells NCI-H460; details: read-out: IC50 of peptide, MTT, 570 nm, at least three independent experiments in triplicate
Excerpt: as §1, §2

[3] = system: parental cells (KB-3-1); details: read-out: IC50 of peptide; KB-3-1 (parental); MTT, 570 nm; at least three independent triplicate experiments
Excerpt: as §1, §2

[4] = biological target: T1, ABCB1 (Homo sapiens, UniProt P08183); details: XH-14C 0–40 μM; vanadate-sensitive; phosphate read at 800 nm; three independent experiments
T1 sequence (P08183 whole entry): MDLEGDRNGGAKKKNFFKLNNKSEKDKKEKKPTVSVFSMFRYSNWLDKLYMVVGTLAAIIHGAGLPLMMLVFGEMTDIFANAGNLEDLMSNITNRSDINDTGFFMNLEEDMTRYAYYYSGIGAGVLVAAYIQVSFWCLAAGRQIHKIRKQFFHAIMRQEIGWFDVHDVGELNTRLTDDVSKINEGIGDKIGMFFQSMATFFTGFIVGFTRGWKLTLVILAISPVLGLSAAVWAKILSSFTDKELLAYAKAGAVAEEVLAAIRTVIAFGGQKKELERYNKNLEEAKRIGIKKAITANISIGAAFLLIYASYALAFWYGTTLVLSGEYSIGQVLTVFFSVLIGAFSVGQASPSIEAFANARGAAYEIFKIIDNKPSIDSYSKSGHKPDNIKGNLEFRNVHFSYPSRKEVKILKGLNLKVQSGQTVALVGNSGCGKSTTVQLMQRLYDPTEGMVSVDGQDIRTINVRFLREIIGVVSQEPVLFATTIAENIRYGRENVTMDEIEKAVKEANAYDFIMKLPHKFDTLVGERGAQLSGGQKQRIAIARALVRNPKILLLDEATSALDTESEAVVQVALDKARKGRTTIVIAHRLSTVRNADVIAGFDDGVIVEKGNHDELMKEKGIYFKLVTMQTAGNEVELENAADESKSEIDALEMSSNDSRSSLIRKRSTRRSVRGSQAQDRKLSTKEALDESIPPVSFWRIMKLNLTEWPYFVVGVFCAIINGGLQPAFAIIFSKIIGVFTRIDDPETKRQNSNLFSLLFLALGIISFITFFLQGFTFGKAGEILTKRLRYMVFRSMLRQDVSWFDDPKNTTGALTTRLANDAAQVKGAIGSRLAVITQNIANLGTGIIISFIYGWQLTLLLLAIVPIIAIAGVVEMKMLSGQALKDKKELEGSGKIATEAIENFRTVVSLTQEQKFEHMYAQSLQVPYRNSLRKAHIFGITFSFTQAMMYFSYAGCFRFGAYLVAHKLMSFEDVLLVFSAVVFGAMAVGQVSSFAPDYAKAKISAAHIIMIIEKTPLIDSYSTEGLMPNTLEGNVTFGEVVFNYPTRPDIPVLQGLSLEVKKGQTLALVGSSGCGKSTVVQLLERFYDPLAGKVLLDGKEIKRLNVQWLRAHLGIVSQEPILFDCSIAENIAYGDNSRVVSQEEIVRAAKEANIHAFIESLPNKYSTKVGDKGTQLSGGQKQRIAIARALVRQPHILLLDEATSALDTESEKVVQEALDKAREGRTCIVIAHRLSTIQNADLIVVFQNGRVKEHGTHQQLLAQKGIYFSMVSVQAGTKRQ
Experimental: The vanadate-sensitive membrane vesicles ABCB1 and ABCG2 ATPase activity were determined as previously described, and the ABCB1- and ABCG2-overexpressing cell membranes were purchased from BD Biosciences (San Jose, CA, USA). The ATPase activities were calculated based on the measurement of inorganic phosphate (IP)detected using a spectrophotometer at 800 nm.

[5] = system: KB-C2; assay: MTT cytotoxicity of ABCB1 substrates with or without a reversal agent, KB-C2; details: for RF (resistant fold) of the anticancer drug alone: IC50 in KB-C2 divided by IC50 in KB-3-1
Excerpt: as §1, §2

[6] = biological target: T1, ABCB1; parameters: purchased BD Biosciences (San Jose, CA, USA); method as in PMID 25456855; details: non-competitive inhibitor; cited from earlier work
[7] = system: ABCB1 on KB-C2 cells; format: cell-based, human
Experimental: (§3) [^3H]-paclitaxel (31 Ci/mmol, Moravek Biochemicals, Brea, CA, USA) was used to measure the drug accumulation and efflux as previously described. The only difference is that after the cells were seeded evenly in 24-well plate, the cells were incubated in the presence or absence of XH-14C and a parallel positive reversal agent for […]. Liquid scintillation cocktail used to measure the radioactivity was purchased from MP Biomedicals, Inc (St. Ana, CA, USA) and the radioactivity of different groups were read with the Packard TRI-CARB1 190‘A liquid scintillation analyzer. A parallel well of cells for each group was set up for cell number counting at the end of the assay for the purpose of data normalization.

[8] = system: ABCB1-overexpressing KB-C2 cells; format: cell-based, human
Experimental: as §3

[9] = system: KB-3-1 cells; assay: [3H]-paclitaxel efflux assay in KB-3-1; format: cell-based, human; details: 2 h, with or without a reversal agent
Experimental: as §3

[10] = system: NCI-H460; assay: MTT cytotoxicity of ABCG2 substrates with or without a reversal agent, NCI-H460; format: cell-based, human; details: for IC50 / RF (resistant fold) of the anticancer drug alone: no reversal agent; for IC50: mean ± SD, at least three independent experiments in triplicate, read-out: IC50 of the anticancer drug alone; for RF (resistant fold) of the anticancer drug alone: relative to drug alone in NCI-H460
Excerpt: as §1, §2

[11] = system: NCI-H460/MX20; assay: MTT cytotoxicity of ABCG2 substrates with or without a reversal agent, NCI-H460/MX20; format: cell-based, human; details: for IC50: NCI-H460/MX20, mean ± SD, at least three independent experiments in triplicate, read-out: IC50 of the anticancer drug alone; for IC50 / RF (resistant fold) of the anticancer drug alone: no reversal agent
Excerpt: as §1, §2

[12] = system: KB-3-1; assay: MTT cytotoxicity of ABCB1 substrates with or without a reversal agent, KB-3-1; format: cell-based, human; details: no reversal agent; for IC50: mean ± SD, at least three independent experiments in triplicate, read-out: IC50 of the anticancer drug alone; for RF (resistant fold) of the anticancer drug alone: IC50 relative to drug alone in KB-3-1
Excerpt: as §1, §2

[13] = system: HEK293/pcDNA3.1; assay: MTT cytotoxicity of ABCB1 substrates with or without a reversal agent, HEK293/pcDNA3.1; format: cell-based; details: no reversal agent; for IC50: mean ± SD, at least three independent experiments in triplicate, read-out: IC50 of the anticancer drug alone; for RF (resistant fold) of the anticancer drug alone: relative to drug alone in HEK293/pcDNA3.1
Excerpt: as §1, §2

[14] = system: HEK293/ABCB1; assay: MTT cytotoxicity of ABCB1 substrates with or without a reversal agent, HEK293/ABCB1; format: cell-based; details: no reversal agent; for IC50: HEK293/ABCB1, mean ± SD, at least three independent experiments in triplicate, read-out: IC50 of the anticancer drug alone; for RF (resistant fold) of the anticancer drug alone: IC50 in HEK293/ABCB1 divided by IC50 in HEK293/pcDNA3.1
Excerpt: as §1, §2

[15] = KB-C2 cells (ABCB1-overexpressing human epidermal carcinoma)
[16] = NCI-H460/MX20 cells (ABCG2-overexpressing NSCLC)
[17] = IC50 in NCI-H460/MX20 divided by IC50 in NCI-H460
[18] = Homo sapiens, KB-C2, read-out: IC50 of the anticancer drug alone

## CC[C@H](C)[C@H](NC(=O)[C@H](CCCNC(=N)N)NC(=O)[C@H](CCCCN)NC(=O)[C@@H](NC(=O)[C@@H](N)Cc1ccccc1)[C@@H](C)CC)C(=O)N[C@@H](C)C(=O)N[C@@H](CCCNC(=N)N)C(=O)N[C@@H](CC(C)C)C(=O)N[C@@H](CC(C)C)C(=O)N[C@@H](CCCNC(=N)N)C(=O)N[C@@H](CCCCN)C(=O)N[C@H](C(=O)N[C@@H](Cc1c[nH]c2ccccc12)C(=O)N[C@@H](CCCNC(=N)N)C(=O)O)[C@@H](C)CC [XH-14C] (H-FIKRIARLLRKIWR-OH)
[1]; [15]
  IC50: 7.82 µM
[1]; [16]
  IC50: 8.3 µM
[2]
  IC50: 9.07 µM
[3]
  IC50: 8.12 µM
[4]
  maximal stimulation of ABCB1 ATPase activity: 3.28 fold
[5]; non-substrate of ABCB1, all tested cell lines
  effect on cytotoxicity of cisplatin: no effect on the cytotoxicity of cisplatin

## COc1cc2c(cc1OC)CN(CCc1ccc(NC(=O)c3cc(OC)c(OC)cc3NC(=O)c3cnc4ccccc4c3)cc1)CC2 [tariquidar]
[6]
  ABCB1 ATPase stimulation: able to stimulate ABCB1 ATPase activity

## CC(=O)O[C@H]1C(=O)[C@@]2(C)[C@H]([C@H](OC(=O)c3ccccc3)[C@]3(O)C[C@H](OC(=O)[C@H](O)[C@@H](NC(=O)c4ccccc4)c4ccccc4)C(C)=C1C3(C)C)[C@]1(OC(C)=O)CO[C@@H]1C[C@@H]2O [[^3H]-paclitaxel]
[7]
  decrease in intracellular [3H]-paclitaxel (efflux) without XH-14C: about 50%
[8]
  intracellular [3H]-paclitaxel in KB-C2, fold lower than in KB-3-1: more than 100 fold
[9]
  change of cellular [3H]-paclitaxel in KB-3-1: did not significantly change

## COc1ccc2c3c([nH]c2c1)[C@H](CC(C)C)N1C(=O)[C@H](CCC(=O)OC(C)(C)C)NC(=O)[C@@H]1C3 [Ko143]
[10]; cisplatin + reversal agent 3 μM, relative to NCI-H460
  RF of cisplatin in combination with reversal agent: 1.26
[10]; mitoxantrone + reversal agent 3 μM, relative to NCI-H460
  RF of mitoxantrone in combination with reversal agent: 1.10
[10]; topotecan + reversal agent 3 μM, relative to NCI-H460
  RF of topotecan in combination with reversal agent: 0.76
[11]; cisplatin + reversal agent 3 μM, IC50 in NCI-H460/MX20 divided by IC50 in NCI-H460
  RF of cisplatin in combination with reversal agent: 1.23
[11]; mitoxantrone + reversal agent 3 μM, IC50 in NCI-H460/MX20 divided by IC50 in NCI-H460
  RF of mitoxantrone in combination with reversal agent: 2.28
[11]; topotecan + reversal agent 3 μM, IC50 in NCI-H460/MX20 divided by IC50 in NCI-H460
  RF of topotecan in combination with reversal agent: 1.96

## CC[C@H](C)[C@H](NC(=O)[C@H](CCCNC(=N)N)NC(=O)[C@H](CCCCN)NC(=O)[C@@H](NC(=O)[C@@H](N)Cc1ccccc1)[C@@H](C)CC)C(=O)N[C@@H](C)C(=O)N[C@@H](CCCNC(=N)N)C(=O)N[C@@H](CC(C)C)C(=O)N[C@@H](CC(C)C)C(=O)N[C@@H](CCCNC(=N)N)C(=O)N[C@@H](CCCCN)C(=O)N[C@H](C(=O)N[C@@H](Cc1ccccc1)C(=O)N[C@@H](CCCNC(=N)N)C(=O)O)[C@@H](C)CC [XH-14B] (H-FIKRIARLLRKIFR-OH)
[1]; [15]
  IC50: 8.38 µM
[1]; [16]
  IC50: 7.28 µM
[2]
  IC50: 9.37 µM
[3]
  IC50: 10 µM

## O=C1c2c(O)ccc(O)c2C(=O)c2c(NCCNCCO)ccc(NCCNCCO)c21 [Mitoxantrone, mitoxantrone]
[10]; Homo sapiens
  IC50: 0.039 ± 0.005 µM
[10]
  RF (resistant fold) of the anticancer drug alone: 1.00
[11]; Homo sapiens
  IC50: 36.6 ± 4.53 µM
[11]; [17]
  RF (resistant fold) of the anticancer drug alone: 937

## COc1cccc2c1C(=O)c1c(O)c3c(c(O)c1C2=O)C[C@@](O)(C(=O)CO)C[C@@H]3O[C@H]1C[C@H](N)[C@H](O)[C@H](C)O1 [Doxorubicin, doxorubicin]
[12]; Homo sapiens
  IC50: 1.28 ± 0.189 µM
[12]
  RF (resistant fold) of the anticancer drug alone: 1.00
[13]; Homo sapiens
  IC50: 1.226 ± 0.00188 µM
[13]
  RF (resistant fold) of the anticancer drug alone: 1.00
[14]
  IC50: 32.6 ± 4.81 µM
  RF (resistant fold) of the anticancer drug alone: 26.6
[5]; [18]
  IC50: 67.6 ± 2.46 µM
[5]; no reversal agent
  RF (resistant fold) of the anticancer drug alone: 53.0

## CC[C@H](C)[C@H](NC(=O)[C@H](CCCNC(=N)N)NC(=O)[C@H](CCCCN)NC(=O)[C@@H](NC(=O)[C@@H](N)Cc1ccccc1)[C@@H](C)CC)C(=O)N[C@@H](C)C(=O)N[C@@H](CCCNC(=N)N)C(=O)N[C@@H](CC(C)C)C(=O)N[C@@H](CC(C)C)C(=O)N[C@@H](CCCNC(=N)N)C(=O)N[C@@H](CCCCN)C(=O)N[C@H](C(=O)N[C@@H](CCCCN)C(=O)N[C@@H](CCCNC(=N)N)C(=O)O)[C@@H](C)CC [XH-14A] (H-FIKRIARLLRKIKR-OH)
[1]; [15]
  IC50: 22.4 µM
[1]; [16]
  IC50: 8.22 µM
[2]
  IC50: 10.1 µM
[3]
  IC50: 8.73 µM

## CC(=O)O[C@H]1C(=O)[C@@]2(C)[C@H]([C@H](OC(=O)c3ccccc3)[C@]3(O)C[C@H](OC(=O)[C@H](O)[C@@H](NC(=O)c4ccccc4)c4ccccc4)C(C)=C1C3(C)C)[C@]1(OC(C)=O)CO[C@@H]1C[C@@H]2O [Paclitaxel, paclitaxel]
[12]; Homo sapiens
  IC50: 0.003 ± 0.0005 µM
[12]
  RF (resistant fold) of the anticancer drug alone: 1.00
[13]; Homo sapiens
  IC50: 0.0143 ± 0.00153 µM
[13]
  RF (resistant fold) of the anticancer drug alone: 1.00
[14]
  IC50: 0.306 ± 0.0454 µM
  RF (resistant fold) of the anticancer drug alone: 21.38
[5]; [18]
  IC50: 1.31 ± 0.271 µM
[5]; no reversal agent
  RF (resistant fold) of the anticancer drug alone: 437

## CC[C@@]1(O)C(=O)OCc2c1cc1n(c2=O)Cc2cc3c(CN(C)C)c(O)ccc3nc2-1 [Topotecan, topotecan]
[10]; Homo sapiens
  IC50: 0.049 ± 0.006 µM
[10]
  RF (resistant fold) of the anticancer drug alone: 1.00
[11]; Homo sapiens
  IC50: 39.2 ± 4.85 µM
[11]; [17]
  RF (resistant fold) of the anticancer drug alone: 799

## N.N.[Cl][Pt][Cl] [Cisplatin, cisplatin]
[10]
  IC50: 2.76 ± 0.23 µM
[12]
  IC50: 1.64 ± 0.487 µM
[13]
  IC50: 2.27 ± 0.489 µM
[11]
  IC50: 3.15 ± 0.47 µM
[5]; read-out: IC50 of the anticancer drug alone, KB-C2, no reversal agent, mean ± SD, at least three independent experiments in triplicate
  IC50: 1.76 ± 0.377 µM
